Where two headings read alike, the source gives them in different places.
Legend:
Format in all cases: in vivo
rice (Oryza sativa) = experiment: Test B flooded paddy test; conditions: Oryza sativa, Flood, scale 0 to 100, read-out: Plant response rating, Rice
In short: (§1)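 Visual injury scoring (0 = no effect, 100 = complete control) versus controls made 13 to 15 days after treatment in the greenhouse. Test species were grown in flooded paddy to the 2-leaf stage: rice, barnyardgrass, umbrella sedge, duck salad.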

[1] = test system: duck salad (Heteranthera limosa); experiment: Test B flooded paddy test; conditions: Heteranthera limosa, Flood, scale 0 to 100, read-out: Plant response rating, Ducksalad
In short: as §1

[2] = test system: barnyardgrass (Echinochloa crus-galli); experiment: Test B flooded paddy test; conditions: Echinochloa crus-galli, Flood, scale 0 to 100, read-out: Plant response rating, Barnyardgrass
In short: as §1

[3] = test system: umbrella sedge (Cyperus difformis); experiment: Test B flooded paddy test; conditions: Cyperus difformis, Flood, scale 0 to 100, read-out: Plant response rating, Sedge, Umbrella
In short: as §1

[4] = test system: Surinam grass (Brachiaria decumbens); experiment: Test B pre/postemergence; conditions: Urochloa decumbens; for pest or weed control at 125 g/ha: 125 g ai/ha; for pest or weed control at 62 g/ha: 62 g ai/ha
In short: (§2)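 Under greenhouse conditions, seeded pots and young plants (1- to 4-leaf, 2 to 18 cm) were treated at the same time with test chemicals in a non-phytotoxic solvent mixture containing surfactant. Response was assessed visually after 13 to 15 days, from 0 (no effect) to 100 (complete control).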

[5] = test system: lambsquarters (Chenopodium album); experiment: Test B pre/postemergence; conditions: Chenopodium album, post-emergence, Postemergence, scale 0 to 100 (0 no effect, 100 complete control), read-out: Lambsquarters plant response rating
In short: as §2

[6] = test system: velvetleaf (Abutilon theophrasti); experiment: Test B pre/postemergence; conditions: Abutilon theophrasti; for pest or weed control at 62 g/ha: 62 g ai/ha; for pest or weed control at 125 g/ha: 125 g ai/ha
In short: as §2

[7] = test system: morningglory (Ipomoea coccinea); experiment: Test B pre/postemergence; conditions: Ipomoea; for pest or weed control at 62 g/ha: 62 g ai/ha; for pest or weed control at 125 g/ha: 125 g ai/ha
In short: as §2

[8] = test system: giant foxtail (Setaria faberii); experiment: Test B pre/postemergence; conditions: Setaria faberi; for pest or weed control at 125 g/ha: 125 g ai/ha; for pest or weed control at 62 g/ha: 62 g ai/ha
In short: as §2

[9] = test system: crabgrass (Digitaria sanguinalis); experiment: Test B pre/postemergence; conditions: Digitaria sanguinalis; for pest or weed control at 62 g/ha: 62 g ai/ha; for pest or weed control at 125 g/ha: 125 g ai/ha
In short: as §2

corn (Zea mays) = experiment: Test B pre/postemergence; conditions: Zea mays
In short: as §2

[10] = test system: barnyardgrass (Echinochloa crus-galli); experiment: Test B pre/postemergence; conditions: Echinochloa crus-galli, post-emergence, Postemergence, scale 0 to 100 (0 no effect, 100 complete control), read-out: Barnyardgrass plant response rating
In short: as §2

[11] = test system: wheat (Triticum aestivum); experiment: Test B pre/postemergence; conditions: Triticum aestivum, scale 0 to 100 (0 no effect, 100 complete control); for plant injury at 62 g/ha: 62 g ai/ha; for plant injury at 125 g/ha: 125 g ai/ha
In short: as §2

[12] = test system: pigweed (Amaranthus retroflexus); experiment: Test B pre/postemergence; conditions: Amaranthus retroflexus, post-emergence, Postemergence, scale 0 to 100 (0 no effect, 100 complete control), read-out: Pigweed plant response rating
In short: as §2

[13] = test system: cocklebur (Xanthium strumarium); experiment: Test B pre/postemergence; conditions: Xanthium strumarium; for pest or weed control at 62 g/ha: 62 g ai/ha; for pest or weed control at 125 g/ha: 125 g ai/ha
In short: as §2

[14] = test system: blackgrass (Alopecurus myosuroides); experiment: Test B postemergence; conditions: Alopecurus myosuroides, post-emergence, scale 0 to 100 (0 no effect, 100 complete control), read-out: Blackgrass plant response rating
In short: as §2

wild oat (Avena fatua) = experiment: Test B postemergence; conditions: Avena fatua, post-emergence, scale 0 to 100 (0 no effect, 100 complete control), read-out: Oat, Wild plant response rating
In short: as §2

[15] = post-emergence, Postemergence, scale 0 to 100 (0 no effect, 100 complete control), read-out: Surinam Grass plant response rating
[16] = post-emergence, Postemergence, scale 0 to 100 (0 no effect, 100 complete control), read-out: Velvetleaf plant response rating
[17] = post-emergence, Postemergence, scale 0 to 100 (0 no effect, 100 complete control), read-out: Morningglory plant response rating
[18] = post-emergence, Postemergence, scale 0 to 100 (0 no effect, 100 complete control), read-out: Foxtail, Giant plant response rating
[19] = post-emergence, Postemergence, scale 0 to 100 (0 no effect, 100 complete control), read-out: Crabgrass plant response rating
[20] = post-emergence, Postemergence, read-out: Wheat plant response rating
[21] = pre-emergence, Preemergence, read-out: Plant response rating, Wheat
[22] = post-emergence, Postemergence, scale 0 to 100 (0 no effect, 100 complete control), read-out: Cocklebur plant response rating

## CCOC(=O)c1nc(-c2ccc(Br)cc2)nc(N)c1Cl [Compound 94, ethyl 6-amino-2-(4-bromophenyl)-5-chloro-4-pyrimidinecarboxylate]
Rice (Oryza sativa); 125 g ai/ha
  plant injury at 125 g/ha: 0%
Rice (Oryza sativa); 500 g ai/ha
  plant injury at 500 g/ha: 0%
[1]; 125 g ai/ha
  pest or weed control at 125 g/ha: 100%
[1]; 500 g ai/ha
  pest or weed control at 500 g/ha: 100%
[2]; 125 g ai/ha
  pest or weed control at 125 g/ha: 0%
[2]; 500 g ai/ha
  pest or weed control at 500 g/ha: 0%
[3]; 125 g ai/ha
  pest or weed control at 125 g/ha: 90%
[3]; 500 g ai/ha
  pest or weed control at 500 g/ha: 90%
[4]; [15]
  pest or weed control at 125 g/ha: 80%
  pest or weed control at 62 g/ha: 80%
[4]; pre-emergence, Preemergence, scale 0 to 100 (0 no effect, 100 complete control), read-out: Plant response rating, Surinam Grass
  pest or weed control at 125 g/ha: 30%
[4]; pre-emergence, Preemergence, scale 0 to 100, 0 no effect, 100 complete control, read-out: Plant response rating, Surinam Grass
  pest or weed control at 62 g/ha: 10%
[5]; 62 g ai/ha
  pest or weed control at 62 g/ha: 90%
[5]; 125 g ai/ha
  pest or weed control at 125 g/ha: 90%
[6]; [16]
  pest or weed control at 62 g/ha: 90%
  pest or weed control at 125 g/ha: 100%
[6]; pre-emergence, Preemergence, scale 0 to 100, 0 no effect, 100 complete control, read-out: Plant response rating, Velvetleaf
  pest or weed control at 62 g/ha: 40%
[6]; pre-emergence, Preemergence, scale 0 to 100 (0 no effect, 100 complete control), read-out: Plant response rating, Velvetleaf
  pest or weed control at 125 g/ha: 70%
[7]; [17]
  pest or weed control at 62 g/ha: 80%
  pest or weed control at 125 g/ha: 90%
[7]; pre-emergence, Preemergence, scale 0 to 100, 0 no effect, 100 complete control, read-out: Plant response rating, Morningglory
  pest or weed control at 62 g/ha: 0%
[7]; pre-emergence, Preemergence, scale 0 to 100 (0 no effect, 100 complete control), read-out: Plant response rating, Morningglory
  pest or weed control at 125 g/ha: 0%
[8]; [18]
  pest or weed control at 125 g/ha: 60%
  pest or weed control at 62 g/ha: 50%
[8]; pre-emergence, Preemergence, scale 0 to 100 (0 no effect, 100 complete control), read-out: Plant response rating, Foxtail, Giant
  pest or weed control at 125 g/ha: 20%
[8]; pre-emergence, Preemergence, scale 0 to 100, 0 no effect, 100 complete control, read-out: Plant response rating, Foxtail, Giant
  pest or weed control at 62 g/ha: 0%
[9]; [19]
  pest or weed control at 62 g/ha: 70%
  pest or weed control at 125 g/ha: 80%
[9]; pre-emergence, Preemergence, scale 0 to 100, 0 no effect, 100 complete control, read-out: Plant response rating, Crabgrass
  pest or weed control at 62 g/ha: 40%
[9]; pre-emergence, Preemergence, scale 0 to 100 (0 no effect, 100 complete control), read-out: Plant response rating, Crabgrass
  pest or weed control at 125 g/ha: 70%
Corn (Zea mays); post-emergence, Postemergence, 62 g ai/ha, scale 0 to 100 (0 no effect, 100 complete control), read-out: Corn plant response rating
  plant injury at 62 g/ha: 70%
Corn (Zea mays); post-emergence, Postemergence, 125 g ai/ha, scale 0 to 100 (0 no effect, 100 complete control), read-out: Corn plant response rating
  plant injury at 125 g/ha: 90%
Corn (Zea mays); pre-emergence, Preemergence, 62 g ai/ha, scale 0 to 100, 0 no effect, 100 complete control
  Corn plant response rating (crop injury, 0 = no effect, 100 = complete kill) at 62 g/ha: 0%
Corn (Zea mays); pre-emergence, Preemergence, 125 g ai/ha, scale 0 to 100 (0 no effect, 100 complete control)
  Corn plant response rating (crop injury, 0 = no effect, 100 = complete kill) at 125 g/ha: 0%
[10]; 62 g ai/ha
  pest or weed control at 62 g/ha: 80%
[10]; 125 g ai/ha
  pest or weed control at 125 g/ha: 90%
[11]; [20]
  plant injury at 62 g/ha: 40%
  plant injury at 125 g/ha: 60%
[11]; [21]
  plant injury at 62 g/ha: 30%
  plant injury at 125 g/ha: 60%
[12]; 62 g ai/ha
  pest or weed control at 62 g/ha: 90%
[12]; 125 g ai/ha
  pest or weed control at 125 g/ha: 90%
[13]; [22]
  pest or weed control at 62 g/ha: 100%
  pest or weed control at 125 g/ha: 100%
[13]; pre-emergence, Preemergence, scale 0 to 100, 0 no effect, 100 complete control, read-out: Plant response rating, Cocklebur
  pest or weed control at 62 g/ha: 30%
[13]; pre-emergence, Preemergence, scale 0 to 100 (0 no effect, 100 complete control), read-out: Plant response rating, Cocklebur
  pest or weed control at 125 g/ha: 50%
[14]; 62 g ai/ha
  pest or weed control at 62 g/ha: 40%
[14]; 125 g ai/ha
  pest or weed control at 125 g/ha: 60%
Wild oat (Avena fatua); 62 g ai/ha
  pest or weed control at 62 g/ha: 30%
Wild oat (Avena fatua); 125 g ai/ha
  pest or weed control at 125 g/ha: 30%

From patent publication US8802597B2, “Herbicidal pyrimidines” (E I du Pont de Nemours and Company, priority 2003, dated 2014)
